SMILES strings stand for the structures.

In patent publication US10508086B2 (CANCER RESEARCH TECHNOLOGY LIMITED, priority 2014, dated 2019) one finds EC50 and IC50 data, which are given here for 25 compounds.

In one experiment the target is Human Full Length PARG (Homo sapiens (Human), UniProt Q86W56). Nature of the experiment: PARG in vitro enzyme assay (TR-FRET). The format is biochemical. The conditions noted are these: read-out: PARG_EC50_ENZYME. In short, it runs like this:
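Full-length human PARG ([…]) incubated with ribosylated PARP substrate (4.5 nM) for 10 min at room temperature in Tris pH 7.4 buffer with EDTA, EGTA, DTT, KCl. Detection by TR-FRET using anti-6HIS XL665 (14 nM final) and streptavidin europium cryptate (0.75 nM final) after 60 min; Em665/Em620 ratio converted to percent inhibition.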
Background: Time-resolved FRET reads energy transfer from a long-lived donor to a nearby acceptor.

A further experiment has as its target PARG in HeLa cell line (Homo sapiens (Human), UniProt Q86W56). Put plainly: PARG cell assay (nuclear PAR chains after MMS, immunofluorescence). In kind it is cell-based. The note with it: HeLa cells, MMS 50 μg/mL; read-out: PARG Cell IC50 Geomean. On the procedure:
This method is based on the detection of endogenous levels of poly (ADP) ribose chains present in the nucleus of HeLa cell line using indirect immunofluorescence. MMS stimulation increases PAR chains for up to 25 mins. After that point, PARG is active and breaks down the PAR chains, until by one hour after stimulation no PAR chains are detectable. Inhibition of PARG maintains PAR chains.
Briefly, following compound treatment and treatment with the DNA damaging agent methylmethanesulfonate (MMS), the cell monolayer is fixed, then permeabilised and incubated with a mouse monoclonal antibody raised against multimers of poly(ADP) ribose. After an overnight incubation, excess antibody is removed by washing and an Alexafluor 488-linked secondary antibody which recognises the mouse monoclonal is added together with a nuclear stain (Hoechst 33342). Images of the cells are then captured and analysed on a High Content Screening platform and the total intensity of the nuclear fluorescent signal at […] is quantified.
HeLa cells, seeded in 384-well plates, at 4000/well in 30 μL RPMI 1640 media, supplemented with 10% FBS and 2 mM Glutamax, were incubated overnight at 37° C., 5% CO2.
The following day, cells were dosed in quadruplicate with compound (10 point dose response) and incubated for 1 h at 37° C., 5% CO2.
At the end of the 1 h dosing period, MMS was added to duplicates at a final concentration of 50 μg/mL, for a further hour.
Media was tipped off and the cells fixed with 50 μL ice-cold 95% MetOH/PBS for 15 mins at −20° C. Following a PBS wash, 50 μL PBS/0.1% Triton was added to the cells for 20 mins. Following another PBS wash, anti-PAR antibody (Calbiochem AM80) was diluted 1:4000 in a buffer (PBS+0.5% FBS+0.05% Tween20) and added to the cells and incubated overnight at 4° C.
The following day, cells were washed three times with PBS and then incubated for 1 hr with secondary antibody (Alexa Fluor® 488 goat anti mouse IgG (H+L)) diluted 1:1000 and Hoechst diluted 1:5000 in buffer (5% FBS in PBS+0.05% Tween20).
Cells were washed three times with PBS and the plate sealed with a light-proof seal.
Images of the cells were captured on a ThermoFisher Celllnsight and the mean total intensity of spots fluorescent at 485 nm in the nucleus was reported.

Human Full Length PARG, sequence (Q86W56 whole entry): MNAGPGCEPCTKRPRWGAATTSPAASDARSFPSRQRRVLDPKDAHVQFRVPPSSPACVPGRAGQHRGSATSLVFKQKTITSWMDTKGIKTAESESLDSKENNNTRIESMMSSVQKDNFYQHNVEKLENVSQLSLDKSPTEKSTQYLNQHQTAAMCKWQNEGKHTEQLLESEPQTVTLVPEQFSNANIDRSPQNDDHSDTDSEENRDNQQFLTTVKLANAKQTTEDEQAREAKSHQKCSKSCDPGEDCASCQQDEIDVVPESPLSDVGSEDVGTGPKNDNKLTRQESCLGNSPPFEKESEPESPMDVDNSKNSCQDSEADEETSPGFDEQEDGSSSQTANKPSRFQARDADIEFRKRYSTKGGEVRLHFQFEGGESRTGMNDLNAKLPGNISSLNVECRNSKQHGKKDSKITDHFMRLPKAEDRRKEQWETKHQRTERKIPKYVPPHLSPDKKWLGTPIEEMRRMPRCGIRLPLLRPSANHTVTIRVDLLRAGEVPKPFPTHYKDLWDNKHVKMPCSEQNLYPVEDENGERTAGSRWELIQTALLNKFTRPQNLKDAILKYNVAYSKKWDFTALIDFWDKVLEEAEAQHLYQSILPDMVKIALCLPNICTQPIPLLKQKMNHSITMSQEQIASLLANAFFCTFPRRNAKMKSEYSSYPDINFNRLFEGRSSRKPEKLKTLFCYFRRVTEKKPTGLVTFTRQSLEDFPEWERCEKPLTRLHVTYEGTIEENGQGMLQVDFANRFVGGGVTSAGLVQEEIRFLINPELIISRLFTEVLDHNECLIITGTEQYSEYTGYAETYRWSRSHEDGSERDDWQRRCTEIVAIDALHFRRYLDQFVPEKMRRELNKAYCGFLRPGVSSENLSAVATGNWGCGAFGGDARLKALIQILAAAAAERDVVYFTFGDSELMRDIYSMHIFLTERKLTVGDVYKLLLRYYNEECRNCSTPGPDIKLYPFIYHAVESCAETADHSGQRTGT
PARG in HeLa cell line, sequence (Q86W56 whole entry): as above

Turning to `Cn1c(=O)n(-c2ccc(C(F)(F)F)nn2)c2cc(S(=O)(=O)NC3(CF)CC3)c(F)cc21` [Example 206, 6-Fluoro-N-[1-(fluoromethyl)cyclopropyl]-1-methyl-2-oxo-3-[6-(trifluoromethyl)pyridazin-3-yl]benzimidazole-5-sulfonamide], the EC50 at Human Full Length PARG was determined as 3.97 µM. The IC50 (as a rule, the concentration needed to halve the response being measured) at PARG in HeLa cell line turned out to be 0.97 µM.
With `Cc1nnc(-n2c(=O)n(CC#N)c3ccc(S(=O)(=O)NC4(CF)CC4)cc32)s1` [Example 178, 1-(Cyanomethyl)-N-[1-(fluoromethyl)cyclopropyl]-3-(5-methyl-1,3,4-thiadiazol-2-yl)-2-oxo-benzimidazole-5-sulfonamide], the EC50 at Human Full Length PARG came out at 0.682 µM. Besides, the IC50 at PARG in HeLa cell line stood at 0.903 µM.
Taken in the same sequence, the figures for `COCCn1c(=O)n(-c2nc(C)ns2)c2cc(S(=O)(=O)NC3(CF)CC3)ccc21` [Example 184, N-[1-(Fluoromethyl)cyclopropyl]-1-(2-methoxyethyl)-3-(3-methyl-1,2,4-thiadiazol-5-yl)-2-oxo-benzimidazole-5-sulfonamide] were 1.39 µM and 0.701 µM.
For `Cc1nsc(-n2c(=O)n(C)c3ccc(S(=O)(=O)NC4(C)CC4)cc32)n1` [Example 176, 1-Methyl-N-(1-methylcyclopropyl)-3-(3-methyl-1,2,4-thiadiazol-5-yl)-2-oxo-benzimidazole-5-sulfonamide], the EC50 at Human Full Length PARG was 6.02 µM. The IC50 at PARG in HeLa cell line was determined as 1.79 µM.
Turning to `Cc1nnc(-n2c(=O)n(C)c3ccc(S(=O)(=O)NC4(CF)CC4)cc32)s1` [Example 156, N-[1-(Fluoromethyl)cyclopropyl]-1-methyl-3-(5-methyl-1,3,4-thiadiazol-2-yl)-2-oxo-benzimidazole-5-sulfonamide], the EC50 on Human Full Length PARG was determined as 0.686 µM. Besides, the IC50 at PARG in HeLa cell line was determined as 0.589 µM.
The like results for `Cc1nnc(-n2c(=O)n(CC3CCCCN3C)c3ccc(S(=O)(=O)NC4(C)CC4)cc32)s1` (centres unmarked) [Example 143] were, in that order, 0.441 µM and 0.343 µM.
Consider `Cn1c(=O)n(-c2nnc(C(F)F)s2)c2cc(S(=O)(=O)NC3(C)CC3)c(F)cc21` [Example 173, 3-[5-(Difluoromethyl)-1,3,4-thiadiazol-2-yl]-6-fluoro-1-methyl-N-(1-methylcyclopropyl)-2-oxo-benzimidazole-5-sulfonamide], for which the EC50 on Human Full Length PARG was 0.141 µM. In addition, the IC50 at PARG in HeLa cell line came out at 0.064 µM.
Taken in the same sequence, the figures for `Cc1ccc(-n2c(=O)n(C)c3cc(F)c(S(=O)(=O)NC4(C)CC4)cc32)nn1` [Example 205, 6-Fluoro-1-methyl-N-(1-methylcyclopropyl)-3-(6-methylpyridazin-3-yl)-2-oxo-benzimidazole-5-sulfonamide] were 6.69 µM and 5.76 µM.
Regarding `COCCn1c(=O)n(-c2nc(C)ns2)c2cc(S(=O)(=O)NC3(C)CC3)ccc21` [Example 182, 1-(2-Methoxyethyl)-N-(1-methylcyclopropyl)-3-(3-methyl-1,2,4-thiadiazol-5-yl)-2-oxo-benzimidazole-5-sulfonamide], at Human Full Length PARG, the EC50 was determined as 0.309 µM. For the same compound, the 50% inhibitory concentration (IC50) at PARG in HeLa cell line was found to be 0.537 µM.
`Cc1nsc(-n2c(=O)n(CC#N)c3ccc(S(=O)(=O)NC4(CF)CC4)cc32)n1` [Example 180, 1-(Cyanomethyl)-N-[1-(fluoromethyl)cyclopropyl]-3-(3-methyl-1,2,4-thiadiazol-5-yl)-2-oxo-benzimidazole-5-sulfonamide]: the EC50 at Human Full Length PARG amounted to 1.13 µM. Further, the IC50 at PARG in HeLa cell line was 1.93 µM.
Consider `Cc1nsc(-n2c(=O)n(CCN(C)C)c3ccc(S(=O)(=O)NC4(CF)CC4)cc32)n1` [Example 186, 1-[2-(Dimethylamino)ethyl]-N-[1-(fluoromethyl)cyclopropyl]-3-(3-methyl-1,2,4-thiadiazol-5-yl)-2-oxo-benzimidazole-5-sulfonamide], for which the EC50 on Human Full Length PARG came out at 4.23 µM. Also, at PARG in HeLa cell line, the IC50 stood at 3.12 µM.
`Cn1c(=O)n(-c2nnc(C(F)F)o2)c2cc(S(=O)(=O)NC3(CF)CC3)c(F)cc21` [Example 210, 3-[5-(Difluoromethyl)-1,3,4-oxadiazol-2-yl]-6-fluoro-N-[1-(fluoromethyl)cyclopropyl]-1-methyl-2-oxo-benzimidazole-5-sulfonamide]: the EC50 at Human Full Length PARG was 0.349 µM. The IC50 on PARG in HeLa cell line is 0.224 µM.
Taken in the same sequence, the figures for `COCCn1c(=O)n(-c2nnc(C(F)F)s2)c2cc(S(=O)(=O)NC3(CF)CC3)ccc21` [Example 163, 3-[5-(Difluoromethyl)-1,3,4-thiadiazol-2-yl]-N-[1-(fluoromethyl)cyclopropyl]-1-(2-methoxyethyl)-2-oxo-benzimidazole-5-sulfonamide] were 0.09 µM and 0.104 µM.
Taken in the same sequence, the figures for `COCCn1c(=O)n(-c2nnc(C(F)F)s2)c2cc(S(=O)(=O)NC3(CF)CC3)c(F)cc21` [Example 167, 3-[5-(Difluoromethyl)-1,3,4-thiadiazol-2-yl]-6-fluoro-N-[1-(fluoromethyl)cyclopropyl]-1-(2-methoxyethyl)-2-oxo-benzimidazole-5-sulfonamide] were 0.074 µM and 0.046 µM.
Taken in the same sequence, the figures for `CCOC(=O)n1c(=O)n(Cc2sc(C)nc2C)c2ccc(S(=O)(=O)NC3(C)CC3)cc21` [Example 112] were 0.14 µM and 0.85 µM.
On to `Cn1c(=O)n(-c2nnc(C(F)F)o2)c2cc(S(=O)(=O)NC3(C)CC3)ccc21` [Example 195, 3-[5-(Difluoromethyl)-1,3,4-oxadiazol-2-yl]-1-methyl-N-(1-methylcyclopropyl)-2-oxo-benzimidazole-5-sulfonamide], for which, at Human Full Length PARG, the EC50 amounted to 1.01 µM. Also, the IC50 on PARG in HeLa cell line came to 0.457 µM.
Taken in the same sequence, the figures for `Cc1ccc(-n2c(=O)n(C)c3cc(F)c(S(=O)(=O)NC4(CF)CC4)cc32)nn1` [Example 204, 6-Fluoro-N-[1-(fluoromethyl)cyclopropyl]-1-methyl-3-(6-methylpyridazin-3-yl)-2-oxo-benzimidazole-5-sulfonamide] were 6.19 µM and 4.23 µM.
In the case of `Cn1c(=O)n(-c2ncns2)c2cc(S(=O)(=O)NC3(CF)CC3)ccc21` [Example 175, N-[1-(Fluoromethyl)cyclopropyl]-1-methyl-2-oxo-3-(1,2,4-thiadiazol-5-yl)benzimidazole-5-sulfonamide], the EC50 at Human Full Length PARG worked out at 0.25 µM. Also, the IC50 on PARG in HeLa cell line came out at 0.551 µM.
`CCn1c(=O)n(-c2nnc(C(F)F)s2)c2cc(S(=O)(=O)NC3(C)CC3)c(F)cc21` [Example 207, 3-[5-(Difluoromethyl)-1,3,4-thiadiazol-2-yl]-1-ethyl-6-fluoro-N-(1-methylcyclopropyl)-2-oxo-benzimidazole-5-sulfonamide]: the EC50 on Human Full Length PARG was 0.133 µM. For the same compound, at PARG in HeLa cell line, the IC50 was determined as 0.024 µM.
As for `COCCCn1c(=O)n(-c2nnc(C)s2)c2cc(S(=O)(=O)NC3(CF)CC3)ccc21` [Example 187, N-[1-(Fluoromethyl)cyclopropyl]-1-(3-methoxypropyl)-3-(5-methyl-1,3,4-thiadiazol-2-yl)-2-oxo-benzimidazole-5-sulfonamide], the EC50 on Human Full Length PARG worked out at 0.427 µM. In addition, the concentration for half-maximal inhibition (IC50) at PARG in HeLa cell line was 0.201 µM.
For `COCCCn1c(=O)n(-c2nnc(C)s2)c2cc(S(=O)(=O)NC3(C)CC3)ccc21` [Example 148], the EC50 on Human Full Length PARG turned out to be 0.373 µM. For the same compound, on PARG in HeLa cell line, the half-maximal inhibitory concentration (IC50) worked out at 0.238 µM.
Taken in the same sequence, the figures for `CNC(=O)c1noc(Cn2c(=O)n(-c3nnc(C)o3)c3cc(S(=O)(=O)NC4(C)CC4)ccc32)n1` [Example 117] were 0.275 µM and 24.7 µM.
Taken in the same sequence, the figures for `CCn1c(=O)n(-c2nnc(C)s2)c2cc(S(=O)(=O)NC3(CF)CC3)ccc21` [Example 159, 1-Ethyl-N-[1-(fluoromethyl)cyclopropyl]-3-(5-methyl-1,3,4-thiadiazol-2-yl)-2-oxo-benzimidazole-5-sulfonamide] were 0.59 µM and 0.349 µM.
With `CCn1c(=O)n(-c2nnc(C(F)F)o2)c2cc(S(=O)(=O)NC3(CF)CC3)ccc21` [Example 202, 3-[5-(Difluoromethyl)-1,3,4-oxadiazol-2-yl]-1-ethyl-N-[1-(fluoromethyl)cyclopropyl]-2-oxo-benzimidazole-5-sulfonamide], at Human Full Length PARG, the EC50 is 0.421 µM. Also, the 50% inhibitory concentration (IC50) at PARG in HeLa cell line turned out to be 0.24 µM.
As for `CN(C)CCCn1c(=O)n(-c2nnc(C(F)F)s2)c2cc(S(=O)(=O)NC3(CF)CC3)ccc21` [Example 170, 3-[5-(Difluoromethyl)-1,3,4-thiadiazol-2-yl]-1-[3-(dimethylamino)propyl]-N-[1-(fluoromethyl)cyclopropyl]-2-oxo-benzimidazole-5-sulfonamide], at Human Full Length PARG, the EC50 is 0.092 µM. For the same compound, at PARG in HeLa cell line, the half-inhibitory concentration (IC50) amounted to 0.089 µM.
